{"source": "patent US6803457B1", "about": "“Compounds for the treatment of ischemia” (Pfizer, Inc., priority 1999, dated 2004)", "data": [{"units": {"melting point": "°C"}, "values": [{"molecule": "CNC(=O)[C@H]1O[C@@H](n2cnc3c(NCc4cc(Cl)ccc4OCC4OC(O)C(O)C(O)C4O)ncnc32)[C@H](O)[C@@H]1N", "note": "(stereo partly drawn) [Example 2, (2S,3S,4R,5R)3-Amino-5-{6-[5-chloro-2-(3,4,5,6-tetrahydroxytetrahydropyran-2-ylmethoxy)benzylamino]purin-9-yl}-4-hydroxytetrahydrofuran-2-carboxylic acid methylamide]", "melting point": "212 to 218"}, {"molecule": "CNC(=O)[C@H]1O[C@@H](n2cnc3c(NCc4cc(Cl)ccc4OCCN4CCOCC4)ncnc32)[C@H](O)[C@@H]1N", "note": "[Example 4, (2S,3S,4R,5R)3-Amino-5-{6-[5-chloro-2-(2-morpholin-4-ylethoxy)benzylamino]-purin-9-yl}-4-hydroxytetrahydrofuran-2-carboxylic acid methylamide]", "melting point": "99 to 108"}, {"molecule": "CNC(=O)[C@H]1O[C@@H](n2cnc3c(NCc4cc(Cl)ccc4OCC4CCC4)ncnc32)[C@H](O)[C@@H]1N", "note": "[Example 5, (2S,3S,4R,5R)3-Amino-5-[6-(5-chloro-2-cyclobutylmethoxybenzylamino)-purin-9-yl]-4-hydroxytetrahydrofuran-2-carboxylic acid methylamide]", "melting point": "107 to 117"}, {"molecule": "CNC(=O)[C@H]1O[C@@H](n2cnc3c(NCc4cc(Cl)ccc4OCc4cccc(OC)c4)ncnc32)[C@H](O)[C@@H]1N", "note": "[Example 6, (2S,3S,4R,5R)3-Amino-5-{6-[5-chloro-2-(3-methoxy-benzyloxy)-benzylamino]-purin-9-yl}-4-hydroxytetrahydrofuran-2-carboxylic acid methylamide]", "melting point": "102 to 108"}, {"molecule": "CNC(=O)[C@H]1O[C@@H](n2cnc3c(NCc4cc(Cl)ccc4OCc4cc(OC)ccc4OC)ncnc32)[C@H](O)[C@@H]1N", "note": "[Example 7, (2S,3S,4R,5R)3-Amino-5-{6-[5-chloro-2-(2,5-dimethoxy-benzyloxy)-benzylamino]-purin-9-yl}-4-hydroxytetrahydrofuran-2-carboxylic acid methylamide]", "melting point": "112 to 115"}, {"molecule": "CNC(=O)[C@H]1O[C@@H](n2cnc3c(NCc4cc(Cl)ccc4OCc4cccc(Cl)c4)ncnc32)[C@H](O)[C@@H]1N", "note": "[Example 8, (2S,3S,4R,5R)3-Amino-5-{6-[5-chloro-2-(3-chloro-benzyloxy)-benzylamino]-purin-9-yl}-4-hydroxytetrahydrofuran-2-carboxylic acid methylamide]", "melting point": "85 to 90"}, {"molecule": "CNC(=O)[C@H]1O[C@@H](n2cnc3c(NCc4cc(Cl)ccc4OCc4ccc(Cl)cc4)ncnc32)[C@H](O)[C@@H]1N", "note": "[Example 9, (2S,3S,4R,5R)3Amino-5-{6-[5-chloro-2-(4-chloro-benzyloxy)-benzylamino]-purin-9-yl}-4-hydroxytetrahydrofuran-2-carboxylic acid methylamide]", "melting point": "88 to 92"}, {"molecule": "CNC(=O)[C@H]1O[C@@H](n2cnc3c(NCc4cc(Cl)ccc4OCc4ccccc4Cl)ncnc32)[C@H](O)[C@@H]1N", "note": "[Example 10, (2S,3S,4R,5R)3-Amino-5-{6-[5-chloro-2-(2-chloro-benzyloxy)-benzylamino]-purin-9-yl}-4-hydroxytetrahydrofuran-2-carboxylic acid methylamide]", "melting point": "88 to 92"}, {"molecule": "CNC(=O)[C@H]1O[C@@H](n2cnc3c(NCc4cc(Cl)ccc4OCC4CCOC4)ncnc32)[C@H](O)[C@@H]1N", "note": "(stereo partly drawn) [Example 11, (2S,3S,4R,5R)3-Amino-5-{6-[5-chloro-2-(tetrahydrofuran-3-ylmethoxy)-benzylamino]-purin-9yl}-4-hydroxytetrahydrofuran-2-carboxylic acid methylamide]", "melting point": "114 to 118"}, {"molecule": "CNC(=O)[C@H]1O[C@@H](n2cnc3c(NCc4cc(Cl)ccc4OCc4ccc(C)cc4)ncnc32)[C@H](O)[C@@H]1N", "note": "[Example 12, (2S,3S,4R,5R)3-Amino-5-{6-[5-chloro-2-(4-methyl-benzyloxy)-benzylamino]-purin-9-yl}-4-hydroxytetrahydrofuran-2-carboxylic acid methylamide]", "melting point": "82 to 86"}, {"molecule": "CNC(=O)[C@H]1O[C@@H](n2cnc3c(NCc4cc(Cl)ccc4OCc4ccccc4C)ncnc32)[C@H](O)[C@@H]1N", "note": "[Example 13, (2S,3S,4R,5R)3-Amino-5-{6-[5-chloro-2-(2-methyl-benzyloxy)-benzylamino]-purin-9-yl}-4-hydroxytetrahydrofuran-2-carboxylic acid methylamide]", "melting point": "76 to 80"}, {"molecule": "CNC(=O)[C@H]1O[C@@H](n2cnc3c(NCc4cc(Cl)ccc4OCc4cccc(C)c4)ncnc32)[C@H](O)[C@@H]1N", "note": "[Example 14, (2S,3S,4R,5R)3-Amino-5-{6-[5-chloro-2-(3-methyl-benzyloxy)-benzylamino]-purin-9-yl}-4-hydroxytetrahydrofuran-2-carboxylic acid methylamide]", "melting point": "92 to 97"}, {"molecule": "CNC(=O)[C@H]1O[C@@H](n2cnc3c(NCc4cc(Cl)ccc4OCc4ccccc4OC)ncnc32)[C@H](O)[C@@H]1N", "note": "[Example 15, (2S,3S,4R,5R)3-Amino-5-{6-[5-chloro-2-(2-methoxybenzyloxy)benzylamino]-purin-9-yl}-4-hydroxytetrahydrofuran-2-carboxylic acid methylamide]", "melting point": "102 to 123"}, {"molecule": "CNC(=O)[C@H]1O[C@@H](n2cnc3c(NCc4cc(Cl)ccc4OCc4ccoc4)ncnc32)[C@H](O)[C@@H]1N", "note": "[Example 16, (2S,3S,4R,5R)3-Amino-5-{6-[5-chloro-2-(furan-3-ylmethoxy)benzylamino]-purin-9-yl}-4-hydroxytetrahydrofuran-2carboxylic acid methylamide]", "melting point": "93 to 97"}, {"molecule": "CNC(=O)[C@H]1O[C@@H](n2cnc3c(NCc4cc(Cl)ccc4OCC4CCCC4)ncnc32)[C@H](O)[C@@H]1N", "note": "[Example 18, (2S,3S,4R,5R)3-Amino-5-[6-(5-chloro-2-cyclopentylmethoxy-benzylamino)-purin-9-yl]-4-hydroxytetrahydrofuran-2-carboxylic acid methylamide]", "melting point": "110.6 to 116.2"}, {"molecule": "CNC(=O)[C@H]1O[C@@H](n2cnc3c(NCc4cc(Cl)ccc4OCC4CCOC4)ncnc32)[C@H](O)[C@@H]1N", "note": "(stereo partly drawn) [Example 20, (2S,3S,4R,5R)3-Amino-5-{6-[5-chloro-2-(tetrahydro-furan-3-ylmethoxy)-benzylamino]-purin-9-yl}-4-hydroxy-tetrahydro-furan-2-carboxylic acid methylamide]", "melting point": "132 to 161"}, {"molecule": "CNC(=O)[C@H]1O[C@@H](n2cnc3c(NCc4cc(Cl)ccc4OCc4ccco4)ncnc32)[C@H](O)[C@@H]1N", "note": "[Example 22, (2S,3S,4R,5R)3-Amino-5-{6-(5-chloro-2-(furan-2-ylmethoxy)benzylamino]purin-9-yl}-4-hydroxytetrahydrofuran-2-carboxylic acid methylamide]", "melting point": "187 to 192"}, {"molecule": "CNC(=O)[C@H]1O[C@@H](n2cnc3c(NCc4cc(Cl)ccc4OCc4cc(C)oc4C)ncnc32)[C@H](O)[C@@H]1N", "note": "[Example 24, (2S,3S,4R,5R)3-Amino-5-{6-[5-chloro-2-(2,5-dimethylfuran-3-ylmethoxy)benzylamino]purin-9-yl}-4-hydroxytetrahydrofuran-2-carboxylic acid methylamide]", "melting point": "85 to 88"}, {"molecule": "CNC(=O)[C@H]1O[C@@H](n2cnc3c(NCc4cc(Cl)ccc4OCc4cccnc4)ncnc32)[C@H](O)[C@@H]1N", "note": "[Example 25, (2S,3S,4R,5R)3-Amino-5-{6-[5-chloro-2-(pyridin-3-ylmethoxy)benzylamino]purin-9-yl}-4-hydroxytetrahydrofuran-2-carboxylic acid methylamide]", "melting point": "200 to 218"}, {"molecule": "CNC(=O)[C@H]1O[C@@H](n2cnc3c(NCc4cc(Cl)ccc4OCc4ccc(CN(C)C)o4)ncnc32)[C@H](O)[C@@H]1N", "note": "[Example 26, (2S,3S,4R,5R)3-Amino-5-{6-[5-chloro-2-(5-dimethylaminomethylfuran-2-ylmethoxy)benzylamino]purin-9-yl}-4-hydroxytetrahydrofuran-2-carboxylic acid methylamide]", "melting point": "78 to 81"}, {"molecule": "CNC(=O)[C@H]1O[C@@H](n2cnc3c(NCc4cc(Cl)ccc4OCc4nccs4)ncnc32)[C@H](O)[C@@H]1N", "note": "[Example 27, (2S,3S,4R,5R)3-Amino-5-{6-[5-chloro-2-(thiazol-2-ylmethoxy)-benzylamino]-purin-9-yl}-4-hydroxy-tetrahydro-furan-2-carboxylic acid methylamide]", "melting point": "208 to 209"}, {"molecule": "CNC(=O)[C@H]1O[C@@H](n2cnc3c(NCc4cc(Cl)ccc4OCc4nc5ccccc5s4)ncnc32)[C@H](O)[C@@H]1N", "note": "[Example 28, (2S,3S,4R,5R)3-Amino-5-{6-[2-(benzothiazol-2-ylmethoxy)-5-chlorobenzylamino]purin-9-yl}-4-hydroxytetrahydrofuran-2-carboxylic acid methylamide]", "melting point": "127 to 129"}, {"molecule": "CNC(=O)[C@H]1O[C@@H](n2cnc3c(NCc4cc(Cl)ccc4OCc4cc5ccccc5o4)ncnc32)[C@H](O)[C@@H]1N", "note": "[Example 29, (2S,3S,4R,5R)3-Amino-5-{6-[2-(benzofuran-2-ylmethoxy)-5-chlorobenzylamino]purin-9-yl}-4-hydroxytetrahydrofuran-2-carboxylic acid methylamide]", "melting point": "127 to 130"}, {"molecule": "CNC(=O)[C@H]1O[C@@H](n2cnc3c(NCc4cc(Cl)ccc4OCc4ccns4)ncnc32)[C@H](O)[C@@H]1N", "note": "[Example 30, (2S,3S,4R,5R)3-Amino-5-{6-[5-chloro-2-(isothiazol-5-ylmethoxy)benzylamino]purin-9-yl}-4-hydroxytetrahydrofuran-2-carboxylic acid methylamide]", "melting point": "180 to 183"}, {"molecule": "CNC(=O)[C@H]1O[C@@H](n2cnc3c(NCc4cc(Cl)ccc4OCc4cccs4)ncnc32)[C@H](O)[C@@H]1N", "note": "[Example 31, (2S,3S,4R,5R)3-Amino-5-{6-[5-chloro-2-(thiophen-2-ylmethoxy)benzylamino]purin-9-yl}-4-hydroxytetrahydrofuran-2-carboxylic acid methylamide]", "melting point": "135 to 141"}, {"molecule": "CNC(=O)[C@H]1O[C@@H](n2cnc3c(NCc4cc(Cl)ccc4OCc4ccc5ccccc5n4)ncnc32)[C@H](O)[C@@H]1N", "note": "[Example 32, (2S,3S,4R,5R)3-Amino-5-{6-[5-chloro-2-(quinolin-2-ylmethoxy)benzylamino]purin-9-yl}-4-hydroxytetrahydrofuran-2-carboxylic acid methylamide]", "melting point": "130 to 134"}]}]}
